Results as given in PubChem BioAssay (NCI).
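Cells were grown in 96-well plates and exposed to each compound for 48 hours at five concentrations; endpoints were interpolated linearly between bracketing concentrations, or set to the highest concentration if not reached. Abbreviation: GI50, concentration required for 50% inhibition of growth. TGI denotes the concentration required for complete inhibition of growth.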

Assays:
Assay in all cases: NCI tumour cell line growth inhibition, 48 h
RPMI-8226 leukemia = test system: RPMI-8226 leukemia
TK-10 renal = test system: TK-10 renal
OVCAR-8 ovarian = test system: OVCAR-8 ovarian
SK-MEL-28 melanoma = test system: SK-MEL-28 melanoma
RXF 393 renal = test system: RXF 393 renal
MCF7 breast = test system: MCF7 breast
SF-539 CNS = test system: SF-539 CNS
CCRF-CEM leukemia = test system: CCRF-CEM leukemia
NCI/ADR-RES ovarian = test system: NCI/ADR-RES ovarian
A498 renal = test system: A498 renal

SMILES | GI50 (RPMI-8226 leukemia) | TGI (RPMI-8226 leukemia) | GI50 (TK-10 renal) | TGI (TK-10 renal) | GI50 (OVCAR-8 ovarian) | TGI (OVCAR-8 ovarian) | GI50 (SK-MEL-28 melanoma) | TGI (SK-MEL-28 melanoma) | GI50 (RXF 393 renal) | TGI (RXF 393 renal) | GI50 (MCF7 breast) | TGI (MCF7 breast) | GI50 (SF-539 CNS) | TGI (SF-539 CNS) | GI50 (CCRF-CEM leukemia) | TGI (CCRF-CEM leukemia) | GI50 (NCI/ADR-RES ovarian) | TGI (NCI/ADR-RES ovarian) | GI50 (A498 renal) | TGI (A498 renal)
Cc1ccccc1S(=O)(=O)N1[C@H](c2ccc(Cl)cc2)C(C(=O)N[C@@H](Cc2ccccc2)C(N)=O)=C[C@@H]1C(C)(C)C | 3.07 µM | 26.7 µM | 9.43 µM | 19.1 µM | 5.95 µM | 25.4 µM | 5.34 µM | 12 µM | 5.01 µM | 11.9 µM | 2.17 µM | 9.67 µM | 6.61 µM | 13.4 µM | 5.77 µM | 26.7 µM | 6.69 µM | 21 µM | 7.3 µM | 14.4 µM
N#Cc1cccc(C(=O)c2cnn(-c3ccc(F)cc3)c2N)c1 | > 25 µM | > 25 µM | > 25 µM | > 25 µM | > 25 µM | > 25 µM | > 25 µM | > 25 µM | > 23.4 µM | > 25 µM | > 25 µM | > 25 µM | > 25 µM | > 25 µM | > 25 µM | > 25 µM | > 25 µM | > 25 µM | > 25 µM | > 25 µM
CCOC(=O)c1cc2c(n1Cc1cc(OC)cc(OC)c1)-c1oncc1CCC2 | 0.116 µM | > 33.7 µM | – | > 100 µM | 0.169 µM | > 100 µM | 0.143 µM | > 100 µM | 0.0987 µM | > 100 µM | 0.0401 µM | > 100 µM | 0.0495 µM | 0.203 µM | 0.0542 µM | > 100 µM | 0.0603 µM | – | 0.0469 µM | 0.295 µM
CCON=C1C(C)(C)C(C)(C)C(C)(C)C1(C)C | – | > 100 µM | – | > 100 µM | – | > 100 µM | – | > 100 µM | – | > 100 µM | – | > 100 µM | – | > 100 µM | – | > 100 µM | – | > 100 µM | – | > 100 µM
CCN(CC)c1ccc(N=C2C=C(C(=O)Nc3ccc(S(C)(=O)=O)cc3)C(=O)c3ccccc32)c(C)c1 | 4.96 µM | > 100 µM | > 100 µM | > 100 µM | > 100 µM | > 100 µM | > 100 µM | > 100 µM | > 100 µM | > 100 µM | > 100 µM | > 100 µM | 1.07 µM | > 100 µM | > 100 µM | > 100 µM | 94 µM | > 100 µM | > 100 µM | > 100 µM
CCN(CC)CCOc1ccc(Nc2ncc3cc(-c4c(Cl)cccc4Cl)c(=O)n(CCOC)c3n2)cc1 | 0.921 µM | 3.15 µM | 0.0785 µM | 0.832 µM | 0.2 µM | 3.95 µM | 1.71 µM | 8.97 µM | 0.0184 µM | 0.133 µM | 1.57 µM | 8.4 µM | 0.0557 µM | 0.821 µM | 1.11 µM | 18.1 µM | 0.415 µM | 7.2 µM | 0.0235 µM | 0.16 µM
COc1ccc(Nc2ccnc(NCCNc3ccnc4cc(Cl)ccc34)n2)cc1 | 1.55 µM | 4.84 µM | 3.33 µM | 10.5 µM | 3.54 µM | 17.3 µM | 1.65 µM | 3.35 µM | 1.39 µM | 3.41 µM | 1.53 µM | 5.2 µM | 1.59 µM | 3.2 µM | 1.65 µM | 8.23 µM | 3.9 µM | 16.9 µM | 0.874 µM | 4.92 µM
CN(C)C(=S)NN=C(c1ccccn1)c1ccccn1 | – | > 100 µM | 0.183 µM | 16.5 µM | 0.0361 µM | 27 µM | 0.131 µM | 18.2 µM | 0.138 µM | 13.8 µM | < 0.01 µM | > 47.4 µM | 0.0425 µM | 4.64 µM | – | > 65.2 µM | < 0.0208 µM | 4.98 µM | 0.191 µM | 12.1 µM
Cc1[nH]c(C(=O)Nc2ccc(C(=O)N3CCNCC3)cc2OC(C)C)c(Cl)c1Cl | 2.31 µM | 5.51 µM | 1.8 µM | 3.32 µM | 2.25 µM | 5.32 µM | 1.78 µM | 3.24 µM | 1.59 µM | 3.25 µM | 1.8 µM | 3.59 µM | 1.73 µM | 3.19 µM | 2.57 µM | 6.94 µM | 2.25 µM | 5.58 µM | 11.2 µM | 24.7 µM
CN(C)/C=C/c1nnnn1-c1ccc(Cl)cc1 | 3.38 µM | 18.5 µM | 25.4 µM | 80.4 µM | 11.2 µM | 64.4 µM | 30.2 µM | > 100 µM | 7.55 µM | 26.8 µM | 6.03 µM | 24.8 µM | 16.5 µM | 44.4 µM | 4.65 µM | 42.4 µM | 10.2 µM | 36.3 µM | 30.5 µM | 87.1 µM
COc1ccc(-c2nsc3c2NC(=O)CC3c2ccc3c(c2)OCO3)cc1 (stereo unspecified) | 2.51 µM | > 100 µM | 8.25 µM | > 100 µM | 3.04 µM | > 100 µM | 5.28 µM | > 100 µM | 1.38 µM | 7.88 µM | 0.367 µM | > 100 µM | 1.05 µM | 3.7 µM | 1.09 µM | 8.49 µM | 0.524 µM | 6.12 µM | 1.05 µM | 7.05 µM
COC(=O)Nc1nc2ccc(Oc3ccc(NC(=O)Nc4cccc(Br)c4)cc3)cc2[nH]1 | 8.24 µM | > 25 µM | 4.66 µM | 12 µM | 4.32 µM | > 20 µM | 2.53 µM | 7.7 µM | 1.92 µM | 11.9 µM | 0.22 µM | 3.77 µM | 2.04 µM | > 20.8 µM | 1.59 µM | > 25 µM | > 6.8 µM | > 25 µM | 2.1 µM | 17.4 µM
CC/C=C\C/C=C\C[C@H](O)C/C=C1/C(=O)C=C[C@H]1C/C=C\CCC(=O)OC | 1.59 µM | 5.01 µM | > 8.25 µM | > 8.25 µM | 2.51 µM | > 8.25 µM | 2.85 µM | > 8.25 µM | 4.99 µM | > 8.25 µM | 2.43 µM | > 8.25 µM | 2.82 µM | > 8.25 µM | 2.31 µM | 7.8 µM | 3.74 µM | > 8.25 µM | > 8.25 µM | > 8.25 µM
O=C1c2ccccc2-c2c1c1ccc([N+](=O)[O-])cc1c(=O)n2CCNCCCNCCn1c2c(c3ccc([N+](=O)[O-])cc3c1=O)C(=O)c1ccccc1-2 | 0.00538 µM | 0.139 µM | 1.27 µM | 22.1 µM | 0.0989 µM | 8.76 µM | 1.29 µM | 10.2 µM | 0.389 µM | 13.8 µM | 0.708 µM | 27.1 µM | 0.872 µM | 6.04 µM | 0.00645 µM | 3.97 µM | 0.923 µM | 25.9 µM | 1.82 µM | 19.1 µM
